Data: article PMC13061574 (Nature structural & molecular biology, 2024)
Substitutions are numbered along the chain they refer to. Numbers in names are those of the source.

Experiments:
THIK1 (K2P13.1) [1] = target: T1, THIK1 (K2P13.1) (Homo sapiens, UniProt Q9HB14, R92A); assay: TEVC electrophysiology, activation; assay type: cell-based
T1 sequence (Q9HB14 1-408 R92A): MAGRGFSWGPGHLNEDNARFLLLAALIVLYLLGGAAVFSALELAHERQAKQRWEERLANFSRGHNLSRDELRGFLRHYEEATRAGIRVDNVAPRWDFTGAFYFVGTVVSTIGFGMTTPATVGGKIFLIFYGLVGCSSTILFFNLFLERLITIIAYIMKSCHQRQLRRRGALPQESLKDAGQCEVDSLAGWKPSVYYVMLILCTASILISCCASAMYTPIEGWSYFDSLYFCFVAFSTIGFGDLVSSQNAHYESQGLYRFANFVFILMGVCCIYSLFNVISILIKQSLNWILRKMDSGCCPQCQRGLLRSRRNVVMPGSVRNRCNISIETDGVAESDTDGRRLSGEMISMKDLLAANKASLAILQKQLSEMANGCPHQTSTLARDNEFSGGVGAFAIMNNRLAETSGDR

THIK1 (K2P13.1) [2] = target: T1, THIK1 (K2P13.1); assay: TEVC electrophysiology dose–response, activation; assay type: cell-based
cryo-EM structure = target: the molecule itself; assay: cryo-EM structure

## CC/C=C\C/C=C\C/C=C\C/C=C\C/C=C\CCCC(=O)O [EPA, eicosapentanoic acid]
THIK1 (K2P13.1) [1]
  TEVC electrophysiology, activation: α-LNL, eicosapentanoic acid (EPA), dihomo-γ-EIC (DGLA) and oleic acid (OA) also activated R92A

## CCCCCCCC/C=C\CCCCCCCC(=O)O [OA, oleic acid]
THIK1 (K2P13.1) [1]
  TEVC electrophysiology, activation: α-LNL, eicosapentanoic acid (EPA), dihomo-γ-EIC (DGLA) and oleic acid (OA) also activated R92A

## CCCCC/C=C\C/C=C\CCCCCCCC(=O)O [EIC, linoleic acid]
THIK1 (K2P13.1) [2]
  EC50: 700 nM

B1: THIK1EM (human K2P13.1 (THIK1) residues 1-350, N59Q, N65Q) (domain or fragment, UniProt Q9HB14 1-350, looked up)
chain: MAGRGFSWGPGHLNEDNARFLLLAALIVLYLLGGAAVFSALELAHERQAKQRWEERLAQFSRGHQLSRDELRGFLRHYEEATRAGIRVDNVRPRWDFTGAFYFVGTVVSTIGFGMTTPATVGGKIFLIFYGLVGCSSTILFFNLFLERLITIIAYIMKSCHQRQLRRRGALPQESLKDAGQCEVDSLAGWKPSVYYVMLILCTASILISCCASAMYTPIEGWSYFDSLYFCFVAFSTIGFGDLVSSQNAHYESQGLYRFANFVFILMGVCCIYSLFNVISILIKQSLNWILRKMDSGCCPQCQRGLLRSRRNVVMPGSVRNRCNISIETDGVAESDTDGRRLSGEMISMK
cryo-EM structure
  stoichiometry N: 2

B2: THIK1EM-S136P (domain or fragment, human, UniProt Q9HB14 1-350, looked up)
chain: B1 chain with S136P
cryo-EM structure
  binding result: binds
